This is an account of results in the supplement of paper PMC5412046.

For test [1], the system named is SB.mhdgc-1. The test is described as follows: area under the dose-response curve of % viability (trapezoidal, 11 doses) (% viability x log10 concentration); higher = less cytotoxic. The following applies: SB.mhdgc-1 (hereditary c.1380delA CDH1 gastric cancer). Put shortly:
(§1)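 Viability values are normalised to DMSO and given either at the highest concentration or as trapezoidal area under the curve. The assay used 500 hereditary or sporadic patient-derived gastric cancer cells in 5 μL medium per 1536 well, dosed by pintool with 23 nL of compound in DMSO at 11 threefold-diluted concentrations. CellTiter-Glo was added 48 h later for 30 min at room temperature, followed by luminescence reading on a ViewLux.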

Test [2] relates to SB.msgc-1. The description is as above. The settings on record: SB.msgc-1 (sporadic gastric cancer). The method, boiled down: as §1
Test [3] has as its system SB.mhdgc-1. Put plainly: viability at highest tested concentration (MAXR) relative to DMSO; higher = less cytotoxic. The following applies: SB.mhdgc-1 (hereditary c.1380delA CDH1 gastric cancer). The method, boiled down: as §1
Test [4] deals with SB.msgc-1. The test is described as above. The following applies: SB.msgc-1 (sporadic gastric cancer). The method, boiled down:
as §1

`C[S+](=O)([O-])Oc1ccc2c(NC(N)=O)c(C(=O)c3ccc(Cl)cc3Cl)oc2c1` [Lirimilast] (top concentration 46.0829 µM): the “area under the dose-response curve” value was 461 in the test with SB.mhdgc-1 [1] and 424 with SB.msgc-1 [2]. The viability (in general, a read-out of living cells in per cent, often relative to untreated cells) in the test on SB.mhdgc-1 [3] was found to be 66.1%; with SB.msgc-1 [4], 8%.

Consider `CC(C)n1nc(-c2cc3cc(O)ccc3[nH]2)c2c(N)ncnc21` [PP-242] (top concentration 46.0829 µM), for which the “area under the dose-response curve” value with SB.mhdgc-1 [1] is 343; with SB.msgc-1 [2] it was 430. For the same molecule, the viability in the test on SB.mhdgc-1 [3] was 36.9%; in the test on SB.msgc-1 [4] it was 29.3%.

Consider `NC(=O)c1ccc(I)c([N+](=O)[O-])c1` [Iniparib] (top concentration 46.0829 µM), for which the “area under the dose-response curve” value with SB.mhdgc-1 [1] stood at 583; in the test on SB.msgc-1 [2] it was 474. Further, the results for the viability with SB.mhdgc-1 [3] and in the test with SB.msgc-1 [4] were 36.6% and 81.8%, respectively.

In the case of `CN1CCN(c2ccc([N+](=O)[O-])c3no[n+]([O-])c23)CC1` (top concentration 46.0829 µM), the “area under the dose-response curve” value with SB.mhdgc-1 [1] was 434; with SB.msgc-1 [2] it was 456. Besides, the viability in the test on SB.mhdgc-1 [3] turned out to be 4.84%; in the test on SB.msgc-1 [4], 21.4%.

For `Cc1ccc(F)c(NC(=O)Nc2ccc(-c3cccc4[nH]nc(N)c34)cc2)c1` [Linifanib] (top concentration 46.0829 µM), the figures for the “area under the dose-response curve” value in the test on SB.mhdgc-1 [1] and in the test with SB.msgc-1 [2] were 479 and 498, respectively. The viability in the test on SB.mhdgc-1 [3] was 18.9%; in the test on SB.msgc-1 [4], 26.4%.

In the case of `CN[C@@H](C)C(=O)N[C@H]1CN(C(=O)CC(C)C)CC[C@H]2CC[C@@H](C(=O)NC(c3ccccc3)c3ccccc3)N2C1=O` [AT-406] (top concentration 46.0829 µM), the entries for the “area under the dose-response curve” value in the test with SB.mhdgc-1 [1] and in the test on SB.msgc-1 [2] were 385 and 452, respectively. The results for the viability with SB.mhdgc-1 [3] and in the test on SB.msgc-1 [4] were 14.5% and 18.7%, respectively.

As to `Cc1onc(-c2ccccc2)c1C(=O)N[C@@H]1C(=O)N2[C@@H]1SC(C)(C)[C@@H]2C(=O)[O-].[Na+]` [Oxacillin sodium] (top concentration 46.0829 µM), the figures for the “area under the dose-response curve” value in the test with SB.mhdgc-1 [1] and in the test on SB.msgc-1 [2] were 606 and 549, respectively. Further, the viability with SB.mhdgc-1 [3] stood at 111%; in the test on SB.msgc-1 [4], 133%.

Regarding `CC(C)Oc1ccc(C(=O)N[C@H](CNC(=O)CN(C)C)Cc2ccc(-c3cn4cccc([C@H](C)O)c4n3)cc2)cc1Cl` (top concentration 46.0829 µM), the “area under the dose-response curve” value was determined as 397 with SB.mhdgc-1 [1] and 364 in the test with SB.msgc-1 [2]. Further, the results for the viability in the test on SB.mhdgc-1 [3] and in the test on SB.msgc-1 [4] were 13.2% and 38.2%, respectively.

On to `COc1cc(C)c(Sc2cnc(NC(=O)c3ccc(CNC(C)C(C)C)cc3)s2)cc1C(=O)N1CCN(C(C)=O)CC1` (configuration not stated) [ITK inhibitor] (top concentration 46.0829 µM), for which the “area under the dose-response curve” value in the test with SB.mhdgc-1 [1] came out at 454; with SB.msgc-1 [2], 522. In addition, the viability was found to be 37.2% in the test with SB.mhdgc-1 [3] and 62.7% in the test with SB.msgc-1 [4].

`CN[C@@H]1C[C@H]2O[C@@](C)([C@@H]1OC)n1c3ccccc3c3c4c(c5c6ccccc6n2c5c31)C(=O)N[C@H]4O` [7-Hydroxystaurosporine] (top concentration 46.0829 µM): the “area under the dose-response curve” value in the test with SB.mhdgc-1 [1] was found to be 220; in the test on SB.msgc-1 [2], 344. For the same molecule, the viability was found to be 2.27% with SB.mhdgc-1 [3] and 17.2% with SB.msgc-1 [4].

As to `C[C@H](NC(=O)C(=O)Nc1ccccc1C(C)(C)C)C(=O)N[C@@H](CC(=O)O)C(=O)COc1c(F)c(F)cc(F)c1F` [Emricasan] (top concentration 46.0829 µM), the figures for the “area under the dose-response curve” value with SB.mhdgc-1 [1] and in the test on SB.msgc-1 [2] were 537 and 574, respectively. Further, the viability came to 105% in the test on SB.mhdgc-1 [3] and 84.6% in the test on SB.msgc-1 [4].

In the case of `NC(=O)Nc1sc(-c2ccc(F)cc2)cc1C(N)=O` [TPCA-1] (top concentration 46.0829 µM), the “area under the dose-response curve” value worked out at 298 in the test with SB.mhdgc-1 [1] and 446 in the test with SB.msgc-1 [2]. Also, the viability in the test with SB.mhdgc-1 [3] was found to be 3.19%; in the test on SB.msgc-1 [4], 48.3%.

Turning to `NC(=O)c1c(OCc2c(F)cc(Br)cc2F)nsc1NC(=O)NCCCCN1CCCC1` [OSI-632] (top concentration 46.0829 µM), the “area under the dose-response curve” value with SB.mhdgc-1 [1] was 459; with SB.msgc-1 [2], 556. In addition, the results for the viability in the test with SB.mhdgc-1 [3] and in the test with SB.msgc-1 [4] were 2.77% and 96.5%, respectively.

Regarding `C[C@@]12C(=O)OC(=O)[C@@]1(C)C1CCC2O1` [Cantharidin] (top concentration 46.0829 µM), the entries for the “area under the dose-response curve” value with SB.mhdgc-1 [1] and with SB.msgc-1 [2] were 394 and 444, respectively. In addition, the viability came out at 6.58% in the test with SB.mhdgc-1 [3] and 18% with SB.msgc-1 [4].

Consider `CN(C)CC(C)(C)CNc1nn2c(-c3ccccc3)nnc2cc1C1CCC1` [Akt-I-1] (top concentration 46.0829 µM), for which the “area under the dose-response curve” value in the test with SB.mhdgc-1 [1] was 381; with SB.msgc-1 [2], 528. Besides, the viability in the test on SB.mhdgc-1 [3] came to 30.8%; in the test on SB.msgc-1 [4], 67.5%.

As to `Cn1cc(-c2cnn3c(N)c(Br)c([C@H]4CCCNC4)nc23)cn1` (top concentration 46.0829 µM), the “area under the dose-response curve” value in the test with SB.mhdgc-1 [1] came out at 354; with SB.msgc-1 [2] it was 440. The viability in the test with SB.mhdgc-1 [3] came out at 24.7%; with SB.msgc-1 [4], 73%.

In the case of `Nc1cc(C(F)(F)F)c(-c2cc(N3CCOCC3)nc(N3CCOCC3)n2)cn1` [BKM-120] (top concentration 46.0829 µM), the “area under the dose-response curve” value in the test on SB.mhdgc-1 [1] was determined as 285; with SB.msgc-1 [2], 388. In addition, the viability with SB.mhdgc-1 [3] worked out at 20.6%; in the test on SB.msgc-1 [4] it was 19%.

Turning to `CN(C[C@@H]1COCCO1)[S+]([O-])(=O)NC2=CC3=C(C=C2)\C=C/C4=C(C=C(C=N4)C5=C[N](C)N=C5)C3=O` [MK-2461] (top concentration 46.0829 µM), the “area under the dose-response curve” value in the test with SB.mhdgc-1 [1] was determined as 564; in the test with SB.msgc-1 [2], 470. Besides, the figures for the viability with SB.mhdgc-1 [3] and with SB.msgc-1 [4] were 90.3% and 76.8%, respectively.

Take `CC(C)(C)NC(=O)[C@@H]1CN(Cc2cccnc2)CCN1C[C@@H](O)C[C@@H](Cc1ccccc1)C(=O)N[C@H]1c2ccccc2C[C@H]1O.O=S(=O)(O)O` [Indinavir] (top concentration 46.0829 µM): the figures for the “area under the dose-response curve” value with SB.mhdgc-1 [1] and in the test with SB.msgc-1 [2] were 347 and 473, respectively. Also, the viability in the test with SB.mhdgc-1 [3] came to 37.1%; with SB.msgc-1 [4], 52.7%.

With `COC(=O)C\1=C(C)\N\C(=C(/C1C2=CC=CC3=NON=C23)C(=O)OC(C)C)C` (configuration not stated) [Isradipine] (top concentration 46.0829 µM), the “area under the dose-response curve” value worked out at 390 with SB.mhdgc-1 [1] and 292 in the test with SB.msgc-1 [2]. Moreover, the viability in the test on SB.mhdgc-1 [3] was determined as 2.69%; in the test with SB.msgc-1 [4], 0.326%.

`COC1=CC=C(C=C1)C/2=C/OC3=CC(=CC=C3C2=O)O` [Formononetin] (top concentration 46.0829 µM): the “area under the dose-response curve” value in the test with SB.mhdgc-1 [1] was 621; with SB.msgc-1 [2], 567. Further, the viability came out at 122% in the test with SB.mhdgc-1 [3] and 92% in the test on SB.msgc-1 [4].

Take `CC(C)(C)NC(=O)[C@H]1CC[C@H]2[C@@H]3CC[C@H]4NC(=O)\C=C/[C@]4(C)[C@H]3CC[C@]12C` [Finasteride] (top concentration 46.0829 µM): the “area under the dose-response curve” value is 357 with SB.mhdgc-1 [1] and 362 in the test with SB.msgc-1 [2]. The figures for the viability in the test with SB.mhdgc-1 [3] and with SB.msgc-1 [4] were 1.13% and 2.98%, respectively.

`COc1ccc([S+](=O)([O-])Nc2cc(-c3c(O)ccc4ccccc34)c(O)c3ccccc23)cc1` [C-188-9] (top concentration 46.0829 µM): the entries for the “area under the dose-response curve” value with SB.mhdgc-1 [1] and in the test with SB.msgc-1 [2] were 423 and 469, respectively. For the same molecule, the values for the viability in the test on SB.mhdgc-1 [3] and in the test on SB.msgc-1 [4] were 3.52% and 43.1%, respectively.
